These results are taken from patent US20140106387A1, “METHOD FOR CONTROLLING NAD(P)/NAD(P)H RATIO BY OXIDOREDUCTASE” (MD BIOALPHA CO., LTD., priority 2006, published 2014).

SMILES strings stand for the structures.

In experiment [1] the test system is HEK293 cells. Put plainly: intracellular ATP, ADP and AMP levels by LC-MS in HEK293. In kind it is cell-based, human. Particulars: HEK293 cells having no NQO1 activity, 2 hours. The method, then: Samples were analyzed using an Agilent 1100 series LC/MSD system equipped with G1322A degasser, G1312A binary pump, G1315A photo-diode-array detector, 59987A electrospray interface and 5989B mass spectrometer. ES-MS analysis was performed using an Agilent 5989 electrospray (ES) mass spectrometer (MS) with an Agilent Atmospheric Pressure Ionization (API) interface fitted with a hexapole ion guide. Chromatogram was automatically integrated with the aid of Chemstation software, and concentrations were determined using a standard calibration curve.
Acid extraction was used for analysis of an AOPN concentration in the cells and liver tissues. 400 μl of 6% HClO4 was added to the cells cultured in a 100 mm dish, whereas a two-fold volume of 6% HClO4 was added to the liver tissues which were then immediately homogenized. Each mixture was centrifuged at 14,000 g and 4° C. for 10 min, and the resulting supernatants were neutralized by addition of 1 M borate buffer (pH 11) containing 4 mM EDTA in an amount of 75%. Samples were aliquoted and stored at a temperature of −80° C.
A mobile phase was 100 mM ammonium acetate:MeOH (98:2, v/v), and preparations were filtered through a 0.22-μm Millipore filter. A flow rate was set to 0.8 mL/min and detection was made at 254 nm. Separation was carried out using a ZORBAX Bonus-RP C18 column (3.5 μm, 4.6×150 mm I.D., Waters, USA). […]

In another experiment the test system is AMPK. Put plainly: AMPK kinase assay in mouse tissues. The class given is in vivo.
Another experiment deals with HepG2 cells. Put plainly: calcium influx (Fluo-4) in HepG2 cells. The class given is cell-based, human. The method, then: Cells were grown on a coverslip in a culture medium for 24 hours, maintained in an RPMI 1640 serum-free medium for 1 hour, and pretreated with a calcium indicator Fluo-4 (5 μM) for 30 min. After pretreatment, the coverslip was mounted on a slide glass. Changes in an intracellular calcium concentration were observed using a fluorescence microscope (Carl Zeiss) for 30 sec, and cells were treated with a candidate compound (e.g. pyran-1,2-naphthoquinone) simultaneously with consecutive imaging of calcium changes using a fluorescence microscope (Carl Zeiss) for 2 sec. […] Changes in the intracellular calcium concentration were observed using a fluorescence microscope (Carl Zeiss) for 30 sec, and cells were treated with pyre-1,2-naphthoquinone (10 μM), followed by continuous shooting of calcium changes using a fluorescence microscope for 2 sec. Using an LSM Image Browser program (Carl Zeiss), 300 images taken for 10 min every 2 seconds were sorted and ordered in a time sequence and plotted on a graph.
For determination of the inner mitochondrial membrane potential (ΔΨm), 20 nM of TMRE (tetramethylrhodamine ethyl ester) as a fluorescent indicator was continuously applied to be loaded on cells. In order to monitor mitochondrial Ca^2+, cells on glass coverslips were loaded with 10 μM Rhod-2 AM via cold loading/warm incubation. In order to monitor cytosolic Ca^2+, cells were co-loaded with 10 μM Fluo-4 AM at 37′C for 30 min. […] Images for TMRE (red fluorescence), Rhod-2 (red fluorescence) and Fluo-4 (green fluorescence) were obtained using an inverted Zeiss 510META laser-scanning confocal microscope equipped with ×63 numerical aperture, 1.4 oil-immersion planapochromat lens. Green fluorescence and red fluorescence were illuminated with light of 488 nm and 543 nm. […]
Cells were cultured for 24 hours and then pre-treated with Fluo-4 for 30 min. Cells immobilized on a coverslip were transferred to a slide glass and treated with pyrano-1,2-naphthoquinone (10 μM), and at the same time images were taken every 2 seconds for 10 min using a fluorescence microscope.

In experiment [2] the test system is HEK293 cells. Put plainly: mitochondrial oxygen consumption in HEK293 cells. The class given is cell-based, human. An excerpt: FIG. 22 is a graph showing monitoring results of mitochondrial oxygen consumption using a Clark-type oxygen electrode;
In another experiment the test system is eNOS. Put plainly: phosphorylation of endothelial nitric oxide synthase (eNOS) in HUVEC. The class given is cell-based, human. The following applies: 10 μM. The method, then:
It is well-known that activation of AMPK activates NRF-1 and facilitates mitochondrial biogenesis. In addition, NO/cGMP activates PGC-1α and NRF-1 to facilitate mitochondrial biogenesis. In order to ascertain whether an NQO1 activator, which activates AMPK, is involved in production of nitric oxide (NO), a degree of phosphorylation, leading to an increase in activity of endothelial nitric oxide synthase (eNOS), was determined. […] The culture medium was replaced with a serum free EBM2 medium, and cells were treated with pyrano-1,2-naphthoquinone (10 μM) for a predetermined time. Phosphorylated eNOS was observed using Anti-[…] eNOS.

A short description of experiment [3]: AMP/ATP, NAD+/NADH and NADP+/NADPH ratios in liver after intravenous administration. The class given is in vivo, mouse. Particulars: Lean mice.
[4] abbreviates: DIO mice, oral 50 mg/kg, data not shown.

For `CC1(C)CCC2=C(O1)c1ccccc1C(=O)C2=O` [βL, 2,2-Dimethyl-3,4-dihydro-2H-benzo[h]chromene-5,6-dione], the “intracellular ATP level” value in the experiment on HEK293 cells [1] is recorded as “no significant changes in the intracellular ATP level”. Further, the “AMPK activity in the liver and gonadal adipose tissues” value in the experiment with AMPK (C57BL/6 mice, 5 mg/kg tail vein, 2 hours and 4 hours) was “increased AMPK activity”. Moreover, the “AMPK activity in liver, EDL and soleus muscle vs vehicle-treated control” value in the experiment with AMPK (DIO mice, oral 50 mg/kg) is “higher”. For the same compound, in the experiment with AMPK (setting [4]), the “duration of oral administration effect on AMPK activity” value is recorded as “about 6 hours” and the “time of maximum oral administration effect on AMPK activity” value came out at 2 h. In addition, in the experiment on HepG2 cells (Fluo4 and Rhod-2-AM fluorescence, cells not given), the “cytosolic Ca2+ concentration ([Ca2+]c) and mitochondrial Ca2+ concentration ([Ca2+]m)” value is given as “increases”. The “time of calcium peak after treatment” value in the experiment on HepG2 cells (HepG2, 10 μM) is given as “about 10 sec”. The increased oxygen consumption result in the experiment on HEK293 cells [2] was “not observed”. The “time of maximum increase of phosphorylation of eNOS” value in the experiment on eNOS came to 30 min. Besides, the “phosphorylation of eNOS 2 hours later” value in the experiment on eNOS (2 hours) was “not observed”. Besides, in experiment [3], the “changes in the AMP/ATP ratio and NAD+/NADP ratio compared with control” value is “less changes”.
